In patent US11192891B2, “Diazaspiro ROCK inhibitors” (BRISTOL-MYERS SQUIBB COMPANY, priority 2017, dated 2021) one finds IC50 data, which are given here for 30 compounds.

SMILES strings stand for the structures.

A word on the IC50: it is the concentration that gives 50% inhibition. A high value points to weaker potency.

ROCK2, sequence (O75116 whole entry, species assumed): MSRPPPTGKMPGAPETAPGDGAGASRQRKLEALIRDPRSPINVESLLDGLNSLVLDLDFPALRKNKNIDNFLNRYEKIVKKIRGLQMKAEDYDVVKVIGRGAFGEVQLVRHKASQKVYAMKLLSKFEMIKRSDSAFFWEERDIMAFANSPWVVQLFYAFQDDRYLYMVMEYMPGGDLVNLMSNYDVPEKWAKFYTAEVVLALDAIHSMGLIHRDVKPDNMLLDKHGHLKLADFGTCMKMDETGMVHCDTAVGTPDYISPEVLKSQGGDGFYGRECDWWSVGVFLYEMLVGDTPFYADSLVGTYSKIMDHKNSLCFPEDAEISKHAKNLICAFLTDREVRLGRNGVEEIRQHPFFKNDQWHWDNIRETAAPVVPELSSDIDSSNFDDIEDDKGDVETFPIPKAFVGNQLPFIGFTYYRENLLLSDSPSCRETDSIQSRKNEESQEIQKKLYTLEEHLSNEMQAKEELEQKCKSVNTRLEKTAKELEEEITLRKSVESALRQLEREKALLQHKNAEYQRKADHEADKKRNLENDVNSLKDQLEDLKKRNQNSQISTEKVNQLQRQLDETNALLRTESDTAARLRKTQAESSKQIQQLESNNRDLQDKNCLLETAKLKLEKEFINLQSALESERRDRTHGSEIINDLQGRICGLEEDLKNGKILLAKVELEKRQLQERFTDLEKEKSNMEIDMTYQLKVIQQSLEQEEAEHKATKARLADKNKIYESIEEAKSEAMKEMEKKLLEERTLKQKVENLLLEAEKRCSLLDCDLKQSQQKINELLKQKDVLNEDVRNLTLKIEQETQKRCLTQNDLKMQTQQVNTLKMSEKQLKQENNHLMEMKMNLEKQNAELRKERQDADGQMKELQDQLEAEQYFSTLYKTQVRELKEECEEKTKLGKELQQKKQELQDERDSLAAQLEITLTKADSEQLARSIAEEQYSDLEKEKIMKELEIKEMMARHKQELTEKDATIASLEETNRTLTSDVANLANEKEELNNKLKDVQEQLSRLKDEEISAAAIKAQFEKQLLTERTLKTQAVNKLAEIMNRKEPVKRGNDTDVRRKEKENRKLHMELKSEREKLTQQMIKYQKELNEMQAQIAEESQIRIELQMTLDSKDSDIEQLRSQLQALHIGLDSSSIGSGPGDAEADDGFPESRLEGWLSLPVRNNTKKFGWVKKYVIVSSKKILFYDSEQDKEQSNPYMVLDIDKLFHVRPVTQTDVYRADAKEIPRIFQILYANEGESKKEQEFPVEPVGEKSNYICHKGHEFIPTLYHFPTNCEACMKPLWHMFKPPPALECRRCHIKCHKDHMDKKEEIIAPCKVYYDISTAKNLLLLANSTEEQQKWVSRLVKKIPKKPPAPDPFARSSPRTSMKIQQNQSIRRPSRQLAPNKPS

For the assay, the target named is ROCK2 (Homo sapiens, UniProt O75116). Nature of the assay: ROCK kinase inhibition assay, FITC peptide substrate, LABCHIP 3000 readout. It counts as biochemical. The settings on record: 5 μM ATP, 1.5 μM peptide substrate. The method in brief:
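Tested across a concentration range, with percent inhibition of kinase activity derived per concentration. Peptide phosphorylation, initiated by adding the Rho kinase variant (final DMSO <2%), was quenched with EDTA and substrate/product resolved by mobility shift.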
In the case of `COc1cc(N2CCC3(CCN(C(=O)c4cc(C)n5nc[nH]c(=O)c45)CC3)C2=O)ccc1-c1cn[nH]c1` [Example 132, 2-[3-methoxy-4-(1H-pyrazol-4-yl)phenyl]-8-{7-methyl-4-oxo-3H,4H-pyrrolo[2,1-f][1,2,4]triazine-5-carbonyl}-2,8-diazaspiro[4.5]decan-1-one], the IC50 is 0.003 µM.
The compound `COc1cc(N2CCC3(CCN(C(=O)c4cn5nc[nH]c(=O)c5c4C)CC3)C2=O)ccc1-c1cn[nH]c1` [Example 133, 2-[3-methoxy-4-(1H-pyrazol-4-yl)phenyl]-8-{5-methyl-4-oxo-3H,4H-pyrrolo[2,1-f][1,2,4]triazine-6-carbonyl}-2,8-diazaspiro[4.5]decan-1-one] showed a concentration for half-maximal inhibition (IC50) of 0.088 µM.
The compound `COc1cc(N2CCC3(CCN(C(=O)c4ccc(-c5noc(C(C)C)n5)cc4)CC3)C2=O)ccc1-c1cn[nH]c1` [Example 134, 2-[3-methoxy-4-(1H-pyrazol-4-yl)phenyl]-8-{4-[5-(propan-2-yl)-1,2,4-oxadiazol-3-yl]benzoyl}-2,8-diazaspiro[4.5]decan-1-one] registered an IC50 of 0.075 µM.
The compound `COc1cc(N2CCC3(CCN(C(=O)c4ccc(-c5cncnc5)cc4)CC3)C2=O)ccc1-c1cn[nH]c1` [Example 135, 2-[3-methoxy-4-(1H-pyrazol-4-yl)phenyl]-8-[4-(pyrimidin-5-yl)benzoyl]-2,8-diazaspiro[4.5]decan-1-one] yielded a 50% inhibitory concentration (IC50) of 0.01 µM.
The same measure for `COc1cc(N2CCC3(CCN(C(=O)c4ccc(-n5ccncc5=O)cc4F)CC3)C2=O)ccc1-c1cn[nH]c1` [Example 136, 8-[2-fluoro-4-(2-oxo-1,2-dihydropyrazin-1-yl)benzoyl]-2-[3-methoxy-4-(1H-pyrazol-4-yl)phenyl]-2,8-diazaspiro[4.5]decan-1-one]: 0.0042 µM; for `COc1cc(N2CCC3(CCN(C(=O)c4ccc(N5CCCOC5=O)cc4)CC3)C2=O)ccc1-c1cn[nH]c1` [Example 137, 2-[3-methoxy-4-(1H-pyrazol-4-yl)phenyl]-8-[4-(2-oxo-1,3-oxazinan-3-yl)benzoyl]-2,8-diazaspiro[4.5]decan-1-one]: 0.0071 µM; for `COc1cc(N2CCC3(CCN(C(=O)c4ccc5nc(C(F)(F)F)cnc5c4)CC3)C2=O)ccc1-c1cn[nH]c1` [Example 138, 2-[3-methoxy-4-(1H-pyrazol-4-yl)phenyl]-8-[2-(trifluoromethyl)quinoxaline-6-carbonyl]-2,8-diazaspiro[4.5]decan-1-one]: 0.063 µM.
The same measure for `COc1cc(N2CCC3(CCN(C(=O)c4ccc(N5CCNC5=O)cc4)CC3)C2=O)ccc1-c1cn[nH]c1` [Example 139, 2-[3-methoxy-4-(1H-pyrazol-4-yl)phenyl]-8-[4-(2-oxoimidazolidin-1-yl)benzoyl]-2,8-diazaspiro[4.5]decan-1-one]: 0.0037 µM; for `COc1cc(N2CCC3(CCN(C(=O)C4CCN(c5ncccn5)CC4)CC3)C2=O)ccc1-c1cn[nH]c1` [Example 140, 2-[3-methoxy-4-(1H-pyrazol-4-yl)phenyl]-8-[1-(pyrimidin-2-yl)piperidine-4-carbonyl]-2,8-diazaspiro[4.5]decan-1-one]: 1.24 µM.
The same measure for `COc1cc(N2CCC3(CCN(C(=O)c4ccc(N5CCOC5=O)cc4)CC3)C2=O)ccc1-c1cn[nH]c1` [Example 141, 2-[3-methoxy-4-(1H-pyrazol-4-yl)phenyl]-8-[4-(2-oxo-1,3-oxazolidin-3-yl)benzoyl]-2,8-diazaspiro[4.5]decan-1-one]: 0.003 µM.
In the case of `COc1cc(N2CCC3(CCN(C(=O)c4ccc(N5CCCCC5=O)cc4)CC3)C2=O)ccc1-c1cn[nH]c1` [Example 142, 2-[3-methoxy-4-(1H-pyrazol-4-yl)phenyl]-8-[4-(2-oxopiperidin-1-yl)benzoyl]-2,8-diazaspiro[4.5]decan-1-one], the concentration for half-maximal inhibition (IC50) is 0.0088 µM.
Take `COc1cc(N2CCC3(CCN(C(=O)c4ccc(-c5nn[nH]n5)cc4)CC3)C2=O)ccc1-c1cn[nH]c1` [Example 143, 2-[3-methoxy-4-(1H-pyrazol-4-yl)phenyl]-8-[4-(2H-1,2,3,4-tetrazol-5-yl)benzoyl]-2,8-diazaspiro[4.5]decan-1-one]: the IC50 turned out to be 1.02 µM.
The compound `COc1cc(N2CCC3(CCN(C(=O)c4ccc5c(c4)CNC5=O)CC3)C2=O)ccc1-c1cn[nH]c1` [Example 144, 2-[3-methoxy-4-(1H-pyrazol-4-yl)phenyl]-8-(1-oxo-2,3-dihydro-1H-isoindole-5-carbonyl)-2,8-diazaspiro[4.5]decan-1-one] came in with a concentration for half-maximal inhibition (IC50) of 0.094 µM.
As to `COc1cc(N2CCC3(CCN(C(=O)c4ccc(-n5cncn5)nc4)CC3)C2=O)ccc1-c1cn[nH]c1` [Example 145, 2-[3-methoxy-4-(1H-pyrazol-4-yl)phenyl]-8-[6-(1H-1,2,4-triazol-1-yl)pyridine-3-carbonyl]-2,8-diazaspiro[4.5]decan-1-one], half-maximal inhibition (IC50) was put at 0.054 µM.
Regarding `COc1cc(N2CCC3(CCN(C(=O)c4ccc(-n5ccncc5=O)cc4)CC3)C2=O)ccc1-c1cn[nH]c1` [Example 146, 2-[3-methoxy-4-(1H-pyrazol-4-yl)phenyl]-8-[4-(2-oxo-1,2-dihydropyrazin-1-yl)benzoyl]-2,8-diazaspiro[4.5]decan-1-one], the half-maximal inhibitory concentration (IC50) amounted to 0.012 µM.
`COc1cc(N2CCC3(CCN(C(=O)c4ccc(N5CC(=O)NC5=O)cc4)CC3)C2=O)ccc1-c1cn[nH]c1` [Example 147, 1-(4-{2-[3-methoxy-4-(1H-pyrazol-4-yl)phenyl]-1-oxo-2,8-diazaspiro[4.5]decane-8-carbonyl}phenyl)imidazolidine-2,4-dione] gave an IC50 of 0.012 µM.
The compound `COc1cc(N2CCC3(CCN(C(=O)C4CCC(C(N)=O)CC4)CC3)C2=O)ccc1-c1cn[nH]c1` (stereo not drawn) [Example 148, 4-{2-[3-methoxy-4-(H-pyrazol-4-yl)phenyl]-1-oxo-2,8-diazaspiro[4.5]decane-8-carbonyl}cyclohexane-1-carboxamide] showed a concentration for half-maximal inhibition (IC50) of 2.17 µM.
For `COc1cc(N2CCC3(CCN(C(=O)c4cccc5cccnc45)CC3)C2=O)ccc1-c1cn[nH]c1` [Example 149, 2-[3-methoxy-4-(1H-pyrazol-4-yl)phenyl]-8-(quinoline-8-carbonyl)-2,8-diazaspiro[4.5]decan-1-one], half-maximal inhibition (IC50) was put at 0.251 µM.
Compound `COc1cc(N2CCC3(CCN(C(=O)c4ccc5cc6n(c5c4)C(C)CNC6=O)CC3)C2=O)ccc1-c1cn[nH]c1` (stereo not drawn) [Example 150, 2-[3-methoxy-4-(1H-pyrazol-4-yl)phenyl]-8-{4-methyl-1-oxo-1H,2H,3H,4H-pyrazino[1,2-a]indole-7-carbonyl}-2,8-diazaspiro[4.5]decan-1-one] had an IC50 of 0.144 µM.
The value for `COc1cc(CN2CCC(C(=O)N3CCC4(CC3)CCN(c3ccc(-c5cn[nH]c5)c(OC)c3)C4=O)CC2)ccc1F` [Example 151, 8-{1-[(4-fluoro-3-methoxyphenyl)methyl]piperidine-4-carbonyl}-2-[3-methoxy-4-(1H-pyrazol-4-yl)phenyl]-2,8-diazaspiro[4.5]decan-1-one] was 2.47 µM.
Consider `COc1cc(N2CCC3(CCN(C(=O)c4ccc5c(cnn5C)c4)CC3)C2=O)ccc1-c1cn[nH]c1` [Example 152, 2-[3-methoxy-4-(1H-pyrazol-4-yl)phenyl]-8-(1-methyl-1H-indazole-5-carbonyl)-2,8-diazaspiro[4.5]decan-1-one], for which 0.0062 µM corresponded to half-maximal inhibition (IC50).
For `COc1cc(N2CCC3(CCN(C(=O)c4ccc5c(ccn5C)c4)CC3)C2=O)ccc1-c1cn[nH]c1` [Example 153, 2-[3-methoxy-4-(1H-pyrazol-4-yl)phenyl]-8-(1-methyl-1H-indole-5-carbonyl)-2,8-diazaspiro[4.5]decan-1-one], the half-maximal inhibitory concentration (IC50) worked out at 0.0045 µM.
The compound `COc1cc(N2CCC3(CCN(C(=O)C4CCN(S(C)(=O)=O)CC4)CC3)C2=O)ccc1-c1cn[nH]c1` [Example 154, 8-(1-methanesulfonylpiperidine-4-carbonyl)-2-[3-methoxy-4-(1H-pyrazol-4-yl)phenyl]-2,8-diazaspiro[4.5]decan-1-one] displayed a concentration for half-maximal inhibition (IC50) of 2 µM.
In the case of `COc1cc(N2CCC3(CCN(C(=O)c4ccc5ccn(C)c5c4)CC3)C2=O)ccc1-c1cn[nH]c1` [Example 155, 2-[3-methoxy-4-(1H-pyrazol-4-yl)phenyl]-8-(1-methyl-1H-indole-6-carbonyl)-2,8-diazaspiro[4.5]decan-1-one], it took 0.04 µM to reach half-maximal inhibition (IC50).
With `COc1ccc2c(c1)cc(C(=O)N1CCC3(CC1)CCN(c1ccc(-c4cn[nH]c4)c(OC)c1)C3=O)n2C` [Example 156, 8-(5-methoxy-1-methyl-1H-indole-2-carbonyl)-2-[3-methoxy-4-(1H-pyrazol-4-yl)phenyl]-2,8-diazaspiro[4.5]decan-1-one], the 50% inhibitory concentration (IC50) stood at 0.054 µM.
The compound `COc1cc(N2CCC3(CCN(C(=O)c4ccc5c(c4)OCC(=O)N5)CC3)C2=O)ccc1-c1cn[nH]c1` [Example 157, 7-{2-[3-methoxy-4-(1H-pyrazol-4-yl)phenyl]-1-oxo-2,8-diazaspiro[4.5]decane-8-carbonyl}-3,4-dihydro-2H-1,4-benzoxazin-3-one] gave a half-maximal inhibitory concentration (IC50) of 0.022 µM.
For `COc1cc(N2CCC3(CCN(C(=O)c4ccc(-c5cccnc5)cc4)CC3)C2=O)ccc1-c1cn[nH]c1` [Example 158, 2-[3-methoxy-4-(1H-pyrazol-4-yl)phenyl]-8-[4-(pyridin-3-yl)benzoyl]-2,8-diazaspiro[4.5]decan-1-one], the IC50 came to 0.0041 µM.
Regarding `COc1cc(-c2cn[nH]c2)ccc1C(=O)N1CCC2(CC1)CCN(c1ccc(-c3cn[nH]c3)c(OC)c1)C2=O` [Example 159, 8-[2-methoxy-4-(1H-pyrazol-4-yl)benzoyl]-2-[3-methoxy-4-(1H-pyrazol-4-yl)phenyl]-2,8-diazaspiro[4.5]decan-1-one], the IC50 was found to be 0.029 µM.
`COc1cc(N2CCC3(CCN(C(=O)c4ccc(-c5cnco5)cc4)CC3)C2=O)ccc1-c1cn[nH]c1` [Example 160, 2-[3-methoxy-4-(1H-pyrazol-4-yl)phenyl]-8-[4-(1,3-oxazol-5-yl)benzoyl]-2,8-diazaspiro[4.5]decan-1-one] displayed a 50% inhibitory concentration (IC50) of 0.023 µM.
The value for `COc1ccc(C(=O)N2CCC3(CC2)CCN(c2ccc(-c4cn[nH]c4)c(OC)c2)C3=O)c(Br)c1` [Example 161, 8-(2-bromo-4-methoxybenzoyl)-2-[3-methoxy-4-(1H-pyrazol-4-yl)phenyl]-2,8-diazaspiro[4.5]decan-1-one] was 0.017 µM.
